Measurements: patent publication US20240325394A1, “SALT AND CRYSTAL FORM OF NITROGEN-CONTAINING HETEROCYCLIC DERIVATIVE, PREPARATION METHOD THEREFOR AND APPLICATION THEREOF” (SHANGHAI HANSOH BIOMEDICAL CO., LTD., priority 2020, published 2024)

Experiments:
hERG potassium channel = biological target: T1, hERG potassium channel (Homo sapiens, UniProt Q12809); test: hERG potassium channel inhibitory activity test (Qpatch, CHO-hERG cells); format: cell-based; settings: highest test concentration 40 μM, read-out: hERG (μM), inhibition at multiple concentrations on hERG current
T1 construct: expressed in transfected cells; host or cells: CHO-hERG cells
T1 sequence (Q12809 whole entry): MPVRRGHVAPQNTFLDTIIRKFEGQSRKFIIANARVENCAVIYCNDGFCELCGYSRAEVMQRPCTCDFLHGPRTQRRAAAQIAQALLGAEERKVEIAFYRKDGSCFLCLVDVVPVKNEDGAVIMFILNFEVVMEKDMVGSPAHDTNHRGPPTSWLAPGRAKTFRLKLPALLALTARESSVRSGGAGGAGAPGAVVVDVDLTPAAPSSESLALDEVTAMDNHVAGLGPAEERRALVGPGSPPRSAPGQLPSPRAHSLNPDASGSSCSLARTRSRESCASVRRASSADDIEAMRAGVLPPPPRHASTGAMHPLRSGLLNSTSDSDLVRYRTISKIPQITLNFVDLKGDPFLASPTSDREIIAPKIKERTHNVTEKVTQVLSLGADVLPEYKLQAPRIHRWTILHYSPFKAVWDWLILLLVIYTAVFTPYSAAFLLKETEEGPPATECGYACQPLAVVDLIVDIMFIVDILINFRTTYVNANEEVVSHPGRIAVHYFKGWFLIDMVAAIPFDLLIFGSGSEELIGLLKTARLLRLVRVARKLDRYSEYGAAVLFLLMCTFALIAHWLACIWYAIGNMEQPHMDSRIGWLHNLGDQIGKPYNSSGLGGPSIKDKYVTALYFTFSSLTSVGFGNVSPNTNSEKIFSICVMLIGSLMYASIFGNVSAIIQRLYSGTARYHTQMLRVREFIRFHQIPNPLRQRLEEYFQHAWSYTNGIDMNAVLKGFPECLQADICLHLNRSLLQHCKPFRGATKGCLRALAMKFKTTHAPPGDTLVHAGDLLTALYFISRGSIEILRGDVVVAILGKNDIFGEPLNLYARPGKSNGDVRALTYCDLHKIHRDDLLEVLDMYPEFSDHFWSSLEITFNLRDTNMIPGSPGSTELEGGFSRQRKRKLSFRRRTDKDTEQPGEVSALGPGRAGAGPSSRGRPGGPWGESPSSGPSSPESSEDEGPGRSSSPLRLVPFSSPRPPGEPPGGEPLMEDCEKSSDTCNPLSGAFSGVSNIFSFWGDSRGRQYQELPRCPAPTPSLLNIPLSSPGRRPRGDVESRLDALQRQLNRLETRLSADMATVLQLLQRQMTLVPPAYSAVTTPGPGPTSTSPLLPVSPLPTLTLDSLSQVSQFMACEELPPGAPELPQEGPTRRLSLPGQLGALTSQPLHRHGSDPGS
Experimental: 7.1.1 CHO-hERG cells were cultured in a 175 cm^2 flask, when the cell density reached 60-80%, the culture medium was removed, the cells were washed with 7 mL PBS, and then digested with 3 mL Detachin. 7.1.2 After complete digestion, 7 mL culture medium was added to neutralize, then the mixture was centrifuged, the supernatant was aspirated, and then 5 mL culture medium was added to re-suspend, ensuring 2-5×10^6/mL of cell density.
The process of single cell high impedance sealing and whole cell mode formation were all automatically completed by Qpatch instrument, after obtaining the whole cell recording mode, the cells were clamped at −80 mV, before giving a 5-second +40 mV depolarization stimulus, a 50 millisecond −50 mV prevoltage was given first, and then repolarized to −50 mV for 5 seconds, then returned to −80 mV. This voltage stimulation was applied every 15 seconds and recorded for 2 minutes before giving extracellular fluid recordings for 5 minutes, and then the administration process was started, the compound concentration was given from the lowest test concentration, each test concentration was given for 2.5 minutes, and the positive control compound 3 μM of Cisapride was given after all concentrations were continuously given. At least 3 cells (n≥3) were tested at each concentration.
7.4.1 20 mM of compound mother liquor was diluted with extracellular fluid, 5 μL of 20 mM compound mother liquor was added into 2495 μL of extracellular fluid and diluted 500-fold to 40 μM, and then the final concentration to be tested was obtained by sequential 3-fold serial dilutions in extracellular solution containing 0.2% DMSO. 7.4.2 The highest test concentration was 40 μM, in a total of 6 concentrations of 40, 13.33, 4.44, 1.48, 0.49 and 0.16 μM respectively. 7.4.3 The content of DMSO in the final test concentration was not more than 0.2%, and this concentration of DMSO had no effect on hERG potassium channel.
The experimental data were analyzed by XLFit software. […]

[1] = Plasma stability, human plasma; format: in vitro ADME
Method in brief: (§1)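 Compound from a 10 μM working solution in 100 mM phosphate buffer was incubated at 37°C in anticoagulated plasma from each species, with propantheline as positive control. Aliquots taken at 0, 15, 30, 60, 90 and 120 min were quenched in acetonitrile with internal standard. Remaining compound was quantified by LC-MS/MS (positive ESI, MRM).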

[2] = Plasma stability, rat plasma; format: in vitro ADME; settings: rat plasma, 37° C.
Method in brief: as §1

[3] = Plasma stability, dog plasma; format: in vitro ADME; settings: dog plasma, 37° C.
Method in brief: as §1

CYP450 1A2 = biological target: T2, CYP450 1A2 (Homo sapiens, UniProt P05177); test: CYP enzyme single point inhibition test, human liver microsomes, 1A2; format: in vitro ADME; settings: single point method
T2 construct: from tissue; host or cells: human liver microsomes
T2 sequence (P05177 1-516): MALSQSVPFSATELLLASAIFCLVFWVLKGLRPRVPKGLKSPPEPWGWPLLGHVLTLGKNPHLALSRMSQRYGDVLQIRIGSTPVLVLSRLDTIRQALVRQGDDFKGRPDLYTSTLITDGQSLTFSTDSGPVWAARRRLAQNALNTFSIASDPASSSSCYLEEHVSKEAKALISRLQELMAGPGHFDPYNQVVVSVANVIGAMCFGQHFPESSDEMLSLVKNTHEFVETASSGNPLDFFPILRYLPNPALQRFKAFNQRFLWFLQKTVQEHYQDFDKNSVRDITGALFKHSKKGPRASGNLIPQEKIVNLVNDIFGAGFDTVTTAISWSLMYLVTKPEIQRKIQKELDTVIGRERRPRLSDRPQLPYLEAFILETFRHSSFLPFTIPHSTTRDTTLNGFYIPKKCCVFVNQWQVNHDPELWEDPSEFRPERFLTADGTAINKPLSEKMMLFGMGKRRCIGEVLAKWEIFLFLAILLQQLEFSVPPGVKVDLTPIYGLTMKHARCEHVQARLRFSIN
Experimental: Using human liver microsomal incubation system, the inhibition of CYP450 enzyme subtypes by compounds was rapidly predicted by single point method.
2.5 mM NADPH: 100 mM phosphate buffer was added to 4.165 mg of NADPH (reduced nicotinamide adenine dinucleotide phosphate) to 2 mL. 0.25 mg/mL microsome: 4 mL of 100 mM phosphate buffer was added to 50 μL of 20 mg/mL microsome and mixed well.
The embodiment compound to be tested was weighed and diluted to 10 mM with DMSO and then diluted to 100 µM with 100 mM phosphate buffer.
• 1. In a 96-well plate, 40 μL of liver microsomes, 10 μL of substrate, 10 μL of compound to be tested were pre-incubated for 3 min. • 2. 40 μL of NADPH was added. • 3. 300 μL of acetonitrile termination solution containing internal standard was added at 20 min. • 4. Centrifugal injection.

## C=CC(=O)N1C[C@H](C)N(c2nc(=O)n(-c3c(SC)ccnc3C(C)C)c3nc(-c4c(N)ccc(Cl)c4F)c(Cl)cc23)C[C@H]1C (atropisomer, axis not shown) [Embodiment 13-1, P-4-((2S,5R)-4-Acryloyl-2,5-dimethylpiperazin-1-yl)-7-(6-amino-3-chloro-2-fluorophenyl)-6-chloro-1-(2-isopropyl-4-(methylthio)pyridin-3-yl)pyrido[2,3-d]pyrimidin-2(1H)-one]
hERG potassium channel
  IC50: > 30 µM
[1]; human, 0.5 μM
  Residual rate (%) 0 min: 100.00%
  Residual rate (%) 15 min: 102.34%
  Residual rate (%) 30 min: 100.28%
  Residual rate (%) 60 min: 90.27%
  Residual rate (%) 120 min: 87.22%
[2]
  Residual rate (%) 0 min: 100.00%
  Residual rate (%) 15 min: 95.57%
  Residual rate (%) 30 min: 96.73%
  Residual rate (%) 60 min: 93.97%
  Residual rate (%) 120 min: 91.93%
[3]
  Residual rate (%) 0 min: 100.00%
  Residual rate (%) 15 min: 97.71%
  Residual rate (%) 30 min: 96.32%
  Residual rate (%) 60 min: 94.86%
  Residual rate (%) 120 min: 92.49%
CYP450 1A2
  IC50: 66.7 µM

## P-4-((2S,5R)-4-acryloyl-2,5-dimethylpiperazin-1-yl)-6-fluoro-7-(2-fluoro-6-hydroxyphenyl)-1-(2-isopropyl-4-(methylthio)pyridin-3-yl)pyrido[2,3-d]pyrimidin-2(1H)-one [Embodiment 2-1]
hERG potassium channel
  IC50: > 30 µM
[1]; human plasma, 37° C.
  Residual rate (%) 0 min: 100.00%
  Residual rate (%) 15 min: 97.39%
  Residual rate (%) 30 min: 98.79%
  Residual rate (%) 60 min: 94.50%
  Residual rate (%) 120 min: 87.91%
[2]
  Residual rate (%) 0 min: 100.00%
  Residual rate (%) 15 min: 99.04%
  Residual rate (%) 30 min: 101.03%
  Residual rate (%) 60 min: 97.16%
  Residual rate (%) 120 min: 84.63%
[3]
  Residual rate (%) 0 min: 100.00%
  Residual rate (%) 15 min: 97.87%
  Residual rate (%) 30 min: 96.23%
  Residual rate (%) 60 min: 92.42%
  Residual rate (%) 120 min: 85.48%
CYP450 1A2
  IC50: > 100 µM
